From patent US20220030868A1, “FUNGICIDAL HALOMETHYL KETONES AND HYDRATES” (FMC CORPORATION, priority 2018, published 2022)

How the values were obtained:
Phakopsora pachyrhizi = assay: Test A: test suspension sprayed on soybean seedlings one day before inoculation with Phakopsora pachyrhizi spores (Asian soybean rust), visual disease rating; type: in vivo; details: 100 = 100% disease control, 0 = no control
Description: General protocol for preparing test suspensions for Tests A-C: the test compounds were first dissolved in acetone in an amount equal to 3% of the final volume and then suspended at the desired concentration (in ppm) in acetone and purified water (50/50 mix by volume) containing 250 ppm of the surfactant PEG400 (polyhydric alcohol esters). The resulting test suspensions were then used in Tests A-C.
The test solution was sprayed to the point of run-off on soybean seedlings. The following day the seedlings were inoculated with a spore suspension of Phakopsora pachyrhizi (the causal agent of Asian soybean rust) and incubated in a saturated atmosphere at 22° C. for 24 h, and then moved to a growth chamber at 22° C. for 8 days, after which time visual disease ratings were made.
Results for Tests A-C are given in Table A. In the Table, a rating of 100 indicates 100% disease control and a rating of 0 indicates no disease control (relative to the controls). An asterisk “*” or a double asterisk “**” next to the rating value indicates a 50 ppm or 10 ppm test suspension was used, respectively. A dash (-) indicates the compound was not tested.

[1] = test system: Puccinia recondita f. sp. tritici; assay: Test B: test suspension sprayed on wheat seedlings one day before inoculation with Puccinia recondita f. sp. tritici spores (wheat leaf rust), disease rating; type: in vivo; details: 100 = 100% disease control, 0 = no control
Description: General protocol for preparing test suspensions for Tests A-C: the test compounds were first dissolved in acetone in an amount equal to 3% of the final volume and then suspended at the desired concentration (in ppm) in acetone and purified water (50/50 mix by volume) containing 250 ppm of the surfactant PEG400 (polyhydric alcohol esters). The resulting test suspensions were then used in Tests A-C. The test solution was sprayed to the point of run-off on wheat seedlings. The following day the seedlings were inoculated with a spore suspension of Puccinia recondita f. sp. tritici (the causal agent of wheat leaf rust) and incubated in a saturated atmosphere at 20° C. for 24 h, and then moved to a growth chamber at 20° C. for 6 days, after which time disease ratings were made. Results for Tests A-C are given in Table A. In the Table, a rating of 100 indicates 100% disease control and a rating of 0 indicates no disease control (relative to the controls). An asterisk “*” or a double asterisk “**” next to the rating value indicates a 50 ppm or 10 ppm test suspension was used, respectively. A dash (-) indicates the compound was not tested.

Row | Structure (SMILES) | Test A rating (disease control) (Phakopsora pachyrhizi; 10 ppm test suspension) [%] | Test B rating (disease control) ([1]; 10 ppm test suspension) [%] | further results
1 | CCOC(=O)c1cnn(Cc2ccc(O/C=C(\OCCOC)C(F)(F)F)cc2)c1 [compound 54] | 0 | 0 | 
2 | C=CCO/C(=C\Oc1ccc(Cn2cc(C(=O)OCC)cn2)cc1)C(F)(F)F [compound 55] | 0 | 0 | 
3 | C#CCO/C(=C\Oc1ccc(Cn2cc(C(=O)OCC)cn2)cc1)C(F)(F)F [compound 56] | 38 | 0 | 
4 | CCO/C(=C\Oc1ccc(S(C)(=O)=O)cc1)C(F)(F)F [compound 60] | 0 | 0 | 
5 | CCO/C(=C\Oc1ccc(S(=O)(=O)N(C)C)cc1)C(F)(F)F [compound 61] | 0 | 0 | 
6 | CCO/C(=C\Oc1ccc(CS(=O)(=O)CC)cc1)C(F)(F)F [compound 62] | 0 | 0 | 
7 | CCCO/C(=C\Oc1ccc(Cn2cc(C(=O)OCC)cn2)cc1)C(F)(F)F [compound 65] | 100 | 0 | 
8 | CCOC(=O)c1cnn(Cc2ccc(CCC3(C(F)(F)F)OCCO3)cc2)c1 [compound 67] |  |  | Test A rating (disease control) (Phakopsora pachyrhizi; 50 ppm test suspension): 65%; Test B rating (disease control) ([1]; 50 ppm test suspension): 0%
9 | CCO/C(=C\Oc1ccc(C(=O)O)cc1)C(F)(F)F [compound 72] |  |  | Test A rating (disease control) (Phakopsora pachyrhizi; 50 ppm test suspension): 13%; Test B rating (disease control) ([1]; 50 ppm test suspension): 0%
10 | CCO/C(=C\Oc1ccc(C(=O)OC(C)C)cc1)C(F)(F)F [compound 73] | 0 | 0 | 
11 | C=CCOC(=O)c1ccc(O/C=C(\OCC)C(F)(F)F)cc1 [compound 74] | 0 | 0 | 
12 | C#CCOC(=O)c1ccc(O/C=C(\OCC)C(F)(F)F)cc1 [compound 75] | 0 | 0 | 
13 | CC(C)CS(=O)(=O)NCc1ccc(OCC2(C(F)(F)F)OCCO2)cc1 [compound 76] | 0 | 0 | 
14 | FC(F)(F)C1(COc2ccc(CNC(=S)NC3CCCCC3)cc2)OCCO1 [compound 77] | 0 | 0 | 
15 | CCOC(=O)NCc1ccc(OCC2(C(F)(F)F)OCCO2)cc1 [compound 78] | 94 | 0 | 
16 | CCO/C(=C\Oc1ccc(C(C)=O)cc1)C(F)(F)F [compound 79] |  |  | Test A rating (disease control) (Phakopsora pachyrhizi; 50 ppm test suspension): 0%; Test B rating (disease control) ([1]; 50 ppm test suspension): 0%
17 | CCOC(=O)Cc1nnn(Cc2ccc(O/C=C(\OCC)C(F)(F)F)cc2)n1 [compound 83] | 82 | 0 | 
18 | CCOC(=O)Cc1nnnn1Cc1ccc(O/C=C(\OCC)C(F)(F)F)cc1 [compound 84] | 0 | 0 | 
19 | CCO/C(=C\Oc1ccc(Cn2cncc2C(=O)OC)cc1)C(F)(F)F [compound 85] | 89 | 0 | 
20 | CCO/C(=C\Oc1ccc(Cn2cnc(C(=O)OC)c2)cc1)C(F)(F)F [compound 86] | 99 | 0 | 
21 | CCO/C(=C\Oc1ccc(Cn2ncc3cccnc32)cc1)C(F)(F)F [compound 87] | 0 | 0 | 
22 | CCO/C(=C\Oc1ccc(Cn2cc(C(=O)OC(C)(C)C)cn2)cc1)C(F)(F)F [compound 89] | 0 | 0 | 
23 | CCOC(=O)c1cc(OC)n(Cc2ccc(O/C=C(\OCC)C(F)(F)F)cc2)n1 [compound 90] | 100 | 0 | 

Row | Structure (SMILES) | Test A rating (disease control) (Phakopsora pachyrhizi; 10 ppm test suspension) [%] | Test B rating (disease control) ([1]; 10 ppm test suspension) [%] | further results
24 | CCO/C(=C\Oc1ccc(Cn2cc(C(=O)OC)c3ccccc32)cc1)C(F)(F)F [compound 91] | 0 | 0 | 
25 | CCO/C(=C\Oc1ccc(CN2OCC(C)(C)C2=O)cc1)C(F)(F)F [compound 92] | 0 | 0 | 
26 | O=C(O)c1cnn(Cc2ccc(OCC3(C(F)(F)F)OCCO3)cc2)c1 [compound 93] | 96 | 0 | 
27 | CCCOC(=O)c1ccc(O/C=C(\OCC)C(F)(F)F)cc1 [compound 94] | 0 | 0 | 
28 | CCOC(=O)c1ccc(O/C=C(\OCC)C(F)(F)F)cc1 [compound 95] | 0 | 0 | 
29 | CCOC(=O)C=CCOc1ccc(O/C=C(\OCC)C(F)(F)F)cc1 [compound 96] | 13 | 0 | 
30 | N#Cc1ccc(OCC2(C(F)(F)F)OCCO2)cc1 [compound 98] |  |  | Test A rating (disease control) (Phakopsora pachyrhizi; 250 ppm test suspension): 100%; Test B rating (disease control) ([1]; 250 ppm test suspension): 100%
31 | CCO/C(=C\Oc1ccc(C(N)=O)cc1)C(F)(F)F [compound 99] | 0 | 80 | 
32 | CCO/C(=C\Oc1ccc(C(=O)NC2CC2)cc1)C(F)(F)F [compound 100] | 0 | 0 | 
33 | CCO/C(=C\Oc1ccc(C(=O)NC(C)C)cc1)C(F)(F)F [compound 101] | 0 | 0 | 
34 | C#CCNC(=O)c1ccc(O/C=C(\OCC)C(F)(F)F)cc1 [compound 102] | 0 | 0 | 
35 | C=CCNC(=O)c1ccc(O/C=C(\OCC)C(F)(F)F)cc1 [compound 103] | 0 | 0 | 
36 | CCCNC(=O)c1ccc(O/C=C(\OCC)C(F)(F)F)cc1 [compound 104] | 0 | 80 | 
37 | CCO/C(=C\Oc1ccc(C(=O)NC)cc1)C(F)(F)F [compound 105] | 0 | 68 | 
38 | CCO/C(=C\Oc1ccc(Cn2cc(C(=O)NCC(F)(F)F)cn2)cc1)C(F)(F)F [compound 106] | 0 | 0 | 
39 | CCO/C(=C\Oc1ccc(Cn2cc(C(=O)NCC#N)cn2)cc1)C(F)(F)F [compound 107] | 0 | 0 | 
40 | CCO/C(=C\Oc1ccc(CN)cc1)C(F)(F)F [compound 110] |  |  | Test A rating (disease control) (Phakopsora pachyrhizi; 50 ppm test suspension): 79%; Test B rating (disease control) ([1]; 50 ppm test suspension): 0%
41 | CCOC(=O)NCc1ccc(O/C=C(\OCC)C(F)(F)F)cc1 [compound 111] | 0 | 0 | 
42 | CC(C)COC(=O)NCc1ccc(OCC2(C(F)(F)F)OCCO2)cc1 [compound 112] | 0 | 0 | 
43 | CCO/C(=C\Oc1ccc(CNC(=O)CC(F)(F)F)cc1)C(F)(F)F [compound 113] | 0 | 0 | 
44 | CCO/C(=C\Oc1ccc(CNC(=O)C(C)OC)cc1)C(F)(F)F (centres unmarked) [compound 114] |  |  | Test A rating (disease control) (Phakopsora pachyrhizi; 50 ppm test suspension): 44%; Test B rating (disease control) ([1]; 50 ppm test suspension): 0%
45 | CCOC(=O)c1cnn(Cc2ccc(SCC3(C(F)(F)F)OCCO3)cc2)c1 [compound 115] |  |  | Test A rating (disease control) (Phakopsora pachyrhizi; 250 ppm test suspension): 0%; Test B rating (disease control) ([1]; 250 ppm test suspension): 0%
46 | CCO/C(=C\Oc1ccc(Cn2cc(C(=O)O)cn2)cc1)C(F)(F)F [compound 116] | 100 | 0 | 
